According to article PMC12525602, “Identification of Selective α-Glucosidase Inhibitors via Virtual Screening with Machine Learning” (Molecules, 2025):
Read-outs that look alike come from different tables or passages of the source. Each block holds one compound with its values, some of them ahead of it.

Assays:
α-glucosidase [1] = target: T1, α-glucosidase (Saccharomyces cerevisiae, UniProt P53341); test: Fluorescence quenching experiment (Stern-Volmer); format: binding; conditions: for Kd: Ka (binding constant); for Kq (bimolecular quenching constant): given as number×10 with exponent 12
T1 construct: purchased Sigma-Aldrich Co. (St. Louis, MI, USA)
T1 sequence (P53341 whole entry): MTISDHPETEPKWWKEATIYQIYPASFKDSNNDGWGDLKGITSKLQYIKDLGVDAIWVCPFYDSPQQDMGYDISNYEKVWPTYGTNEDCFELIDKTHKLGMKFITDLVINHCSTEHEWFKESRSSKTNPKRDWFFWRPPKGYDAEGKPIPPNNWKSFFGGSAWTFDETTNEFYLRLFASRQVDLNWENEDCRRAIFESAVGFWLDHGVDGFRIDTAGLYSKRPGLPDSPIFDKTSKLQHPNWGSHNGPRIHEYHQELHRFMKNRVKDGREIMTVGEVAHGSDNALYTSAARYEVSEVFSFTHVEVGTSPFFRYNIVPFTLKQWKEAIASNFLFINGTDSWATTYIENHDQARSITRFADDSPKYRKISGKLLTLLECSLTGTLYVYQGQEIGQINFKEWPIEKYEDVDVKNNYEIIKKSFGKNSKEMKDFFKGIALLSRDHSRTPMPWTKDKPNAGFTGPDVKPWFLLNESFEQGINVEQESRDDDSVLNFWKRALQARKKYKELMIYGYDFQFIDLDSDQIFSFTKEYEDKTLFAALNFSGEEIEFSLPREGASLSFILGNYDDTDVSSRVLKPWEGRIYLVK
Procedure: The fluorescence quenching experiment was modified somewhat based on previous studies. Fluorescence was determined by titrating α-glucosidase (1.0 mL, 2 U/mL) with different concentrations of inhibited solutions (1.0 mL, 0–200 mM) and left to equilibrate for 5 min. […] Fluorescence burst analysis was performed based on the Stern-Volmer (3) equation.(3) F0/F=1+Kqτ0Q=1+KsvQ
F and F0 are the fluorescence intensities with and without inhibitor, respectively, Ksv is the Stern-Volmer bursting constant, Kq is the bimolecular bursting constant, and [Q] is the concentration of inhibitor.
When the bursting mode conforms to static bursting, the binding constant Ka and the number of binding sites for each enzyme can be calculated from Equation (4).(4) logF0−F/F=logKa+nlogQ
Ka is the binding constant and n is the number of binding sites.
The thermodynamic parameters ∆H, ∆S, and ∆G denote the change in heat, entropy, and free energy, respectively.

α-glucosidase [2] = target: T1, α-glucosidase; test: biochemical; format: biochemical
Procedure: To further investigate the inhibition kinetics of the candidate compounds, α-glucosidase activity was determined at different substrate concentrations. The Lineweaver-Burk expression method in Equation (1) was used to test the reaction of a series of compounds with the substrate pNαGP, and the values of maximum velocity (Vmax) and Michaelis-Menten constant (Km) were calculated.(1) 1/v=Km/Vmax1/[S]+1/Vmax where Vmax and Km are the maximum velocity of the enzyme and the Michaelis-Menten constant in the absence of inhibitor, respectively. [S] is the concentration of substrate and inhibitor.(2) Slope=Km/Vmax+Km/Vmax·KiI where v is the initial reaction rate, Vmax is the maximum initial reaction rate, [I] is the concentration of […], and Km is the Michaelis-Menten constant.

α-glucosidase [3] = target: T1, α-glucosidase; test: In vitro α-glucosidase activity assay (pNαGP, absorbance 405 nm); format: biochemical
Procedure: (§1) The inhibitors used in this study were purchased from the ChemDiv website. Unless otherwise stated, all other reagents used in this experiment were analytically pure reagents purchased from Sigma-Aldrich Co. (St. Louis, MI, USA).
The in vitro α-glucosidase activity assay was determined spectrophotometrically as previously described with only minor modifications. A phosphate-buffer solution at pH 6.8 was configured to obtain 0.5 U/mL of α-glucosidase and 0.6 mM of […] (pNαGP). […] Gradient dilution with phosphate-buffer solution was performed to obtain sample solutions of different concentrations. First, different concentrations of compounds (10 µL), enzyme solution (40 µL) and potassium phosphate buffer (100 µL) were pre-incubated in a 96-well plate for 10 min at 37 °C. Then, 50 µL of substrate (pNαGP, 0.6 mM) was added to each microtiter well and incubated for 20 min at 37 °C, and the absorbance at 405 nm was measured to detect the change in enzyme activity.
The enzyme inhibitory activity of the tested compounds was calculated as follows: α−glucosidase inhibition rate%=Abs control−Abs sample/Abs control×100
(§2) The IC50 values of the tested compounds were calculated using nonlinear fitting (logit method).

α-glucosidase [4] = target: T1, α-glucosidase; test: Synchronous fluorescence spectroscopy (RSQF); format: binding
Procedure: Changes in the microenvironment of tyrosine (Tyr) and tryptophan (Trp) residue fluorophores were detected simultaneously. The excitation and emission wavelength intervals were set to 15 nm and 60 nm, respectively, and the synchronized fluorescence spectra from 260 to 320 nm were determined. The synchronized fluorescence burst ratio (RSFQ) was calculated as follows:(7) RSQF=1−F/F0

α-amylase = target: T2, α-amylase (Sus scrofa, UniProt P00690); test: In vitro α-amylase activity assay (G3-CNP, absorbance 405 nm); format: biochemical, porcine; parameters: inhibition of α-amylase: dose or concentration left out as unconfirmed
T2 construct: α-amylase isolated from porcine pancreas; purchased Sigma-Aldrich Co. (St. Louis, MI, USA); host or cells: porcine pancreas
T2 sequence (P00690 16-511): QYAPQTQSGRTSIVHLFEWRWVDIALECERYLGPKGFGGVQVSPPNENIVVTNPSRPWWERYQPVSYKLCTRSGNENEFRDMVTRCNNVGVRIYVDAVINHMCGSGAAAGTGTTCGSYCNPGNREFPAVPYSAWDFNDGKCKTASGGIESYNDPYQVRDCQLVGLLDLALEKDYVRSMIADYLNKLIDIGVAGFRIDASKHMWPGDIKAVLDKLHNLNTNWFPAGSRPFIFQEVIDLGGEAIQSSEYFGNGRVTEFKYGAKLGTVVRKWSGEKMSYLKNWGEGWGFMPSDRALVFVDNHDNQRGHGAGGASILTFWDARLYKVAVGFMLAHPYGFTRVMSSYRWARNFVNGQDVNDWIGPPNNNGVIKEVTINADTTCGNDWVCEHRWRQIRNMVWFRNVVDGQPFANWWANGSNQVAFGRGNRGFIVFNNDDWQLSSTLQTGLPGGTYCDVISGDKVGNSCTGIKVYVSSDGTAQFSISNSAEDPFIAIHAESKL
Procedure: as §1
The in vitro α-amylase activity assay was determined spectrophotometrically as previously described with only minor modifications. A phosphate-buffer solution at pH 6.8 was configured to obtain α-amylase 5 U/mL and 2-chloro-4-nitrophenyl α-D-maltotrioside (G3-CNP) 0.6 mM. […] Gradient dilution with phosphate-buffer solution was performed to obtain sample solutions of different concentrations.
as §2

α-glucosidase [5] = conditions: cited from earlier work
[6] = activity label of the modeling dataset, sheet Table S5, 1 = active, 0 = inactive
[7] = activity label in the 300-compound modeling dataset (Table S5), 1 = active, 0 = inactive
[8] = activity label of the modeling dataset, Table S5 (1 = active, 0 = inactive)
[9] = Table S5 modeling dataset, activity label 1 = active, 0 = inactive
[10] = activity label of the modeling dataset (Table S5), α-glucosidase, 1 = active, 0 = inactive
[11] = activity label of the 300-compound modeling dataset, Table S5
[12] = activity label of the modeling dataset, Table S5

Kd (α-glucosidase [1]; T 300.15 K): 2.51 µM
Kd (α-glucosidase [1]; T 305.15 K): 19.6 µM
Kd (α-glucosidase [1]; T 310.15 K): 23.8 µM
Ksv (quenching constant) (α-glucosidase [1]; T 300.15 K): 0.59 ±0.02 104 /M
n (number of binding sites) (α-glucosidase [1]; T 300.15 K): 1.16
Kq (bimolecular quenching constant) (α-glucosidase [1]; T 300.15 K): 0.59 ×10^12 (M·S)-1
Ksv (quenching constant) (α-glucosidase [1]; T 305.15 K): 0.42 ±0.04 104 /M
n (number of binding sites) (α-glucosidase [1]; T 305.15 K): 0.99
Kq (bimolecular quenching constant) (α-glucosidase [1]; T 305.15 K): 0.42 ×10^12 (M·S)-1
Ksv (quenching constant) (α-glucosidase [1]; T 310.15 K): 0.39 ±0.02 104 /M
n (number of binding sites) (α-glucosidase [1]; T 310.15 K): 0.79
Kq (bimolecular quenching constant) (α-glucosidase [1]; T 310.15 K): 0.39 ×10^12 (M·S)-1
Type of inhibition (α-glucosidase [2]): Competitive
Vmax (α-glucosidase [2]; [I] 7.5 μM): 9.17±0.04 ×10-1µM/min
Vmax (α-glucosidase [2]; [I] 15 μM): 9.83±0.06 ×10-1µM/min
Vmax (α-glucosidase [2]; [I] 30 μM): 9.35±0.03 ×10-1µM/min
Vmax (α-glucosidase [2]; [I] 50 μM): 9.62±0.05 ×10-1µM/min
Vmax (α-glucosidase [2]; [I] 70 μM): 9.48±0.02 ×10-1µM/min
IC50 (α-glucosidase [3]): 74.7 ± 4.1 µM
inhibition at 250 µM (α-glucosidase [3]; read-out: inhibition of α-glucosidase): ~100%
RSQF values, Trp (Δλ = 60 nm) versus Tyr (Δλ = 15 nm) (α-glucosidase [4]): significantly higher
IC50 (α-amylase): > 500 µM
inhibition of α-amylase (α-amylase; […] µM): minimal inhibition
Structure (SMILES): COc1ccc(-c2nn(-c3ccccc3)c(C)c2-c2cc(C#N)c(C#N)cc2O)cc1 [K802]

Structure (SMILES): Cc1ccc(-n2cc(/C=N\NC(=O)Nc3ccccc3)c(-c3ccc([N+](=O)[O-])cc3)n2)cc1 [compound 299]
activity (α-glucosidase [5]; [6]): 1

Structure (SMILES): Fc1ccc(CNc2cccc(-c3nc4ccccc4[nH]3)c2)cc1 [compound 227]
activity (α-glucosidase [5]; [7]): 1

Structure (SMILES): Fc1ccc(Cn2cc(CSc3nnc(COc4cccc5cccnc45)o3)nn2)cc1 [compound 69]
activity (α-glucosidase [5]; [8]): 0

Structure (SMILES): N#Cc1c(-c2ccc([N+](=O)[O-])cc2)cc(-c2cccc(Br)c2)c(C#N)c1N [compound 48]
activity (α-glucosidase [5]; [8]): 0

Structure (SMILES): Brc1cccc(CSc2nnc(COc3cccc4cccnc34)o2)c1 [compound 99]
activity (α-glucosidase [5]; [9]): 0

Structure (SMILES): O=C(NNS(=O)(=O)c1ccccc1F)c1cc2cc(F)ccc2[nH]1 [compound 226]
activity (α-glucosidase [5]; [7]): 1

Structure (SMILES): COc1cc(-c2oc3cc(O)cc(O)c3c(=O)c2O[C@@H]2O[C@H](CO[C@@H]3O[C@@H](C)[C@H](O)[C@@H](O)[C@H]3O)[C@@H](O)[C@H](O)[C@H]2O)ccc1O [compound 2, C[C@H]1[C@H](O)[C@@H](O)[C@@H](O)[C@H](OC[C@@H]2[C@@H](O)[C@H](O)[C@@H](O)[C@H](OC3=C(C4=CC(OC)=C(O)C=C4)OC5=CC(O)=CC(O)=C5C3=O)O2)O1]
activity (label in modeling dataset) (α-glucosidase [5]; 300-compound dataset of reported inhibitors and ineffective compounds, Table S4): 0
activity (α-glucosidase [5]; [10]): 0

Structure (SMILES): O=C(c1ccccc1)c1ccc2nc(-c3ccccc3O)[nH]c2c1 [compound 30]
activity (α-glucosidase [5]; [10]): 0

Structure (SMILES): c1ccc(CSc2nnc(COc3cccc4cccnc34)o2)cc1 [compound 116]
activity (α-glucosidase [5]; [9]): 0

Structure (SMILES): Cc1ccc(/C(CSc2nnc3c(n2)[nH]c2ccccc23)=N\c2nnc(-c3ccc([N+](=O)[O-])cc3)s2)cc1 [compound 239]
activity (α-glucosidase [5]; [11]): 1

Structure (SMILES): C[C@@H]1O[C@@H](O[C@H]2C(=O)c3c(O)cc(O)cc3O[C@@H]2c2ccc(O)c(O)c2)[C@H](O)[C@H](O)[C@H]1O [compound 229]
activity (α-glucosidase [5]; [7]): 1

Structure (SMILES): N#Cc1c(-c2ccncc2)cc(-c2ccccn2)c(C#N)c1N [compound 28]
activity (α-glucosidase [5]; [10]): 0

Structure (SMILES): COc1cc(/C=C/C(=O)O)cc(-c2cc(/C=C/C(=O)O)cc(OC)c2O)c1O [compound 205]
activity (α-glucosidase [5]; [7]): 1

Structure (SMILES): CC1(C)CC[C@]2(C(=O)O)CC[C@]3(C)C(=CC[C@@H]4[C@@]5(C)CC[C@H](O)C(C)(C)[C@@H]5CC[C@]43C)[C@@H]2C1 [compound 126]
activity (α-glucosidase [5]; [9]): 0

Structure (SMILES): C[C@@H]1O[C@@H](Oc2c(-c3ccc(O)c(O)c3)oc3cc(O)cc(O)c3c2=O)[C@H](O)[C@H](O)[C@H]1O [compound 45]
activity (α-glucosidase [5]; [8]): 0

Structure (SMILES): CC(C)c1ccc(S(=O)(=O)NNC(=O)c2cc3cc(F)ccc3[nH]2)cc1 [compound 88]
activity (α-glucosidase [5]; [8]): 0

Structure (SMILES): COc1cc(Br)ccc1-c1nnc(/N=C(/CSc2nnc3c(n2)[nH]c2ccccc23)c2ccc(Br)cc2Br)s1 [compound 151]
activity (α-glucosidase [5]; [12]): 1

Structure (SMILES): N#Cc1cccc(N/N=C/C2CC(=O)c3ccccc3O2)c1 (stereo not shown) [compound 251]
activity (α-glucosidase [5]; [11]): 1

Structure (SMILES): Clc1ccc(-n2cc(CSc3nnc(COc4cccc5cccnc45)o3)nn2)c(Cl)c1 [compound 49]
activity (α-glucosidase [5]; [8]): 0

Structure (SMILES): Cc1ccc(/C(CSc2nnc3c(n2)[nH]c2ccccc23)=N\c2nnc(-c3ccc(Cl)c(Cl)c3)s2)cc1 [compound 277]
activity (α-glucosidase [5]; [11]): 1

Structure (SMILES): O=C1CC(c2ccc(O)cc2)Oc2cc(O)cc(O)c21 (stereo not shown) [compound 211]
activity (α-glucosidase [5]; [7]): 1

Structure (SMILES): c1ccc(Cn2cc(CSc3nnc(COc4cccc5cccnc45)o3)nn2)cc1 [compound 54]
activity (α-glucosidase [5]; [8]): 0

Structure (SMILES): O=C(COc1c(I)cc(Cl)c2cccnc12)c1ccc(Cl)cc1 [compound 241]
activity (α-glucosidase [5]; [11]): 1

Structure (SMILES): CCOC(=O)c1c(SCC(=O)Nc2ccccc2)nnc(-c2ccccc2)c1-c1ccccc1 [compound 292]
activity (α-glucosidase [5]; [6]): 1

Structure (SMILES): COc1ccc(Br)cc1-c1nnc(/N=C(/CSc2nnc3c(n2)[nH]c2ccccc23)c2cccc([N+](=O)[O-])c2)s1 [compound 164]
activity (α-glucosidase [5]; [12]): 1

Structure (SMILES): N#Cc1c(-c2cccc(Cl)c2)cc(-c2ccco2)c(C#N)c1N [compound 7]
activity (α-glucosidase [5]; [10]): 0

Structure (SMILES): N#Cc1c(-c2cccnc2)cc(-c2ccco2)c(C#N)c1N [compound 19]
activity (α-glucosidase [5]; [10]): 0

Structure (SMILES): O=C(COc1c(I)cc(Cl)c2cccnc12)c1ccc(Br)cc1 [compound 256]
activity (α-glucosidase [5]; [11]): 1

Structure (SMILES): O=[N+]([O-])c1cccc(/C(CSc2nnc3c(n2)[nH]c2ccccc23)=N\c2nnc(-c3cc(Cl)cc(Cl)c3O)s2)c1 [compound 180]
activity (α-glucosidase [5]; [12]): 1

Structure (SMILES): CCCCCCSc1nnc(COc2cccc3cccnc23)o1 [compound 51]
activity (α-glucosidase [5]; [8]): 0

Structure (SMILES): Nc1ccc(CCC(=O)N2CC[C@@H](O)[C@@H](O)C2)cc1 [compound 190]
activity (α-glucosidase [5]; [7]): 1

Structure (SMILES): Clc1ccc(CSc2nnc(COc3cccc4cccnc34)o2)cc1 [compound 121]
activity (α-glucosidase [5]; [9]): 0

Structure (SMILES): O=C(NNS(=O)(=O)c1cccc2ncccc12)c1cc2cc(F)ccc2[nH]1 [compound 90]
activity (α-glucosidase [5]; [8]): 0

Structure (SMILES): COc1ccccc1Nc1nnc(-c2cc3cc(C#N)ccc3[nH]2)s1 [compound 102]
activity (α-glucosidase [5]; [9]): 0
